Measured values: ChEMBL document CHEMBL1687694, “Aminoindazole PDK1 Inhibitors: A Case Study in Fragment-Based Drug Discovery” (ACS Med Chem Lett, 2010)
Values belong to the compound of their own block, whether it stands above or below them.

Key:
[1] = target: T1, 3-phosphoinositide-dependent protein kinase 1 (Homo sapiens, UniProt O15530)
T1 sequence (O15530 whole entry): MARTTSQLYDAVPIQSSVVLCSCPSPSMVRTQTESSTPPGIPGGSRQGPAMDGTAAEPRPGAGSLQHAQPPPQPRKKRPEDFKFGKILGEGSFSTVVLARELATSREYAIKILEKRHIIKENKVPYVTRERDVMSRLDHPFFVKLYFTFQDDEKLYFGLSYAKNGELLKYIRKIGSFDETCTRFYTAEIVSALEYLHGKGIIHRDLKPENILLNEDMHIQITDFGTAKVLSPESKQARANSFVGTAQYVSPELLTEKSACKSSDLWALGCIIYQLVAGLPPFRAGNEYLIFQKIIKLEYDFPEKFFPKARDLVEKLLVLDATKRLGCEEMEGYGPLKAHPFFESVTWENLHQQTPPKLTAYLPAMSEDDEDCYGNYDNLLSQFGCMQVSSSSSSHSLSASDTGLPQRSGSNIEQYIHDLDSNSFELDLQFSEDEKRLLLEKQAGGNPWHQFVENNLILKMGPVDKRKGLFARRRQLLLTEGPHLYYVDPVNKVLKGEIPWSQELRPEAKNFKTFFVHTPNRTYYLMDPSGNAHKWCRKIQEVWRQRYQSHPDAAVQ
Description: Inhibition of His-tagged-truncated human PDK1 preincubated with substrate biotinylated-AKT3 for 30 mins measured after 3 hrs by Scintillation proximity assay

[2] = target: RAC-alpha serine/threonine-protein kinase (Homo sapiens, UniProt P31749); assay: Inhibition of AKT1
Sequence of RAC-alpha serine/threonine-protein kinase (P31749 whole entry): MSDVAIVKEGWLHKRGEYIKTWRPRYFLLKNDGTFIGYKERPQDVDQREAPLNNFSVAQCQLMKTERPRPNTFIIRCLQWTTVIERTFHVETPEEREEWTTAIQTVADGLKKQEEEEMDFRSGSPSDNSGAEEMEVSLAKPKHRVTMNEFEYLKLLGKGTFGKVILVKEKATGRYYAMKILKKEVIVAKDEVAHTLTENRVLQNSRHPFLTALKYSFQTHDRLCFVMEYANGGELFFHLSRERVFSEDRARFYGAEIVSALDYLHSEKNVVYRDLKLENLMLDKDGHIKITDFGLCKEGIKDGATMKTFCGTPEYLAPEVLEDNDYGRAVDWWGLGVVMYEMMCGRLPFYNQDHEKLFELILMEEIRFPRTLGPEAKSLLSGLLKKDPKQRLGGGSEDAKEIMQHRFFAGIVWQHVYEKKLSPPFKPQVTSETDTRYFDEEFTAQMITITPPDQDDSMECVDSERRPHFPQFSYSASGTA

[3] = target: T2, Mitogen-activated protein kinase kinase kinase 5 (Homo sapiens, UniProt Q99683); assay: Inhibition of ASK1
T2 sequence (Q99683 whole entry): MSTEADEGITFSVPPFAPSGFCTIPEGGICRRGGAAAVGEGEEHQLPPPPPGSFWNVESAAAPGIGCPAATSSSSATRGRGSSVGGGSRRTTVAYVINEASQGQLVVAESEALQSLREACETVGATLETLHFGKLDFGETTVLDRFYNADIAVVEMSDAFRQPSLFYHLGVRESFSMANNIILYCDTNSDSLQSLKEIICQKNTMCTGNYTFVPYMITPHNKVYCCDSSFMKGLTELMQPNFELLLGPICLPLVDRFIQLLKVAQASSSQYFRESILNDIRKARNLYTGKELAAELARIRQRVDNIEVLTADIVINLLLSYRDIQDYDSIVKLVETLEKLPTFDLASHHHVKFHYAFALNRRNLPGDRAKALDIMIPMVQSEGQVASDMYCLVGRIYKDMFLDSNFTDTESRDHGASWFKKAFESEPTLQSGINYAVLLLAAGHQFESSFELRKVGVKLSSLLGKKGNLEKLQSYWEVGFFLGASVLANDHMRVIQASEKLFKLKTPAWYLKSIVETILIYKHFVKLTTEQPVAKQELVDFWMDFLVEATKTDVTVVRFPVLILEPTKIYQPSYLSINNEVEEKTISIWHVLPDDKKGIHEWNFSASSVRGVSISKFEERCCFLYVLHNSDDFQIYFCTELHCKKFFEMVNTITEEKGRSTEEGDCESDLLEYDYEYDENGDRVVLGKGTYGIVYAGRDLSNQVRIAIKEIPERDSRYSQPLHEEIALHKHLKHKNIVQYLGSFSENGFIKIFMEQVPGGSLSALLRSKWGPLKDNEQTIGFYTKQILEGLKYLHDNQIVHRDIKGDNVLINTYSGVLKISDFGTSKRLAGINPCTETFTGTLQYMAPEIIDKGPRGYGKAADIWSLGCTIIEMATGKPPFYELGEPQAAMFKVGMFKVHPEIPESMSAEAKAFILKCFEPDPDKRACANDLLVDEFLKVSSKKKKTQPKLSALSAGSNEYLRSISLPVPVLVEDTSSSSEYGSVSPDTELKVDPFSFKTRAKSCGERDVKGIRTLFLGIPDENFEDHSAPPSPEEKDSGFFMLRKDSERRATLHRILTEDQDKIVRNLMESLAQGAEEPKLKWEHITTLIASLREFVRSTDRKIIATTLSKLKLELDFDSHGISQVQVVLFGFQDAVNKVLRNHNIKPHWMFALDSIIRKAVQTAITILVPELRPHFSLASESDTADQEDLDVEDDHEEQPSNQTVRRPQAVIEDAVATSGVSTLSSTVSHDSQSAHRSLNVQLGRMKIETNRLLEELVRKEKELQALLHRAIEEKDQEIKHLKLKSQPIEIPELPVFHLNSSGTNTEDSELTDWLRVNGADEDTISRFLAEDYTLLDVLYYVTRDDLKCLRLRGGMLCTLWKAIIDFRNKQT

Aurora kinase A = target: T3, Aurora kinase A (Homo sapiens, UniProt O14965); assay: Inhibition of Aurora A
T3 sequence (O14965 whole entry): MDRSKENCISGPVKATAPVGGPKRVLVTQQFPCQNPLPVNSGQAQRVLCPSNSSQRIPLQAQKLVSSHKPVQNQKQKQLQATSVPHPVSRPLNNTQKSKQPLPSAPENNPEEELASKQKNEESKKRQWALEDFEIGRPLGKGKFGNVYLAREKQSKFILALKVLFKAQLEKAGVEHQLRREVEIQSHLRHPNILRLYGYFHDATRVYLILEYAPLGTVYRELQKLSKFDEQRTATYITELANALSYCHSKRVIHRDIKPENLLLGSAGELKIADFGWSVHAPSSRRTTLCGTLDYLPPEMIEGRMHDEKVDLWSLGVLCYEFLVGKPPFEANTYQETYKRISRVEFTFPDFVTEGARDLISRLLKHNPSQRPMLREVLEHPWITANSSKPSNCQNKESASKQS

[4] = target: Cyclin-dependent kinase 2 (Homo sapiens, UniProt P24941); assay: Inhibition of CDK2
[5] = target: T4, Serine/threonine-protein kinase Chk1 (Homo sapiens, UniProt O14757); assay: Inhibition of CHK1
T4 sequence (O14757 whole entry): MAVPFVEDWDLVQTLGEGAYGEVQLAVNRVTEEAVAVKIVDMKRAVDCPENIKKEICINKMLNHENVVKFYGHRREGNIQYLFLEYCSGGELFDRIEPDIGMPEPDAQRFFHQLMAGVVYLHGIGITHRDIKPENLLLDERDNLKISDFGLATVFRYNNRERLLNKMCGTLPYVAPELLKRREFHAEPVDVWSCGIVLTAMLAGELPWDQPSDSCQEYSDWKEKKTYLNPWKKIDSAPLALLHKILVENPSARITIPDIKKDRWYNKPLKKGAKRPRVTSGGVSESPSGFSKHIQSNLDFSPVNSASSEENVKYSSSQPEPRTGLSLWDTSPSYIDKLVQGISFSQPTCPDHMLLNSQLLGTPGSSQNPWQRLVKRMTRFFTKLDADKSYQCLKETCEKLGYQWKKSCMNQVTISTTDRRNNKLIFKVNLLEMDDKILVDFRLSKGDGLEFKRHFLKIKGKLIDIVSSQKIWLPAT

[6] = target: Insulin-like growth factor 1 receptor (Homo sapiens, UniProt P08069); assay: Inhibition of IGF1R
Sequence of Insulin-like growth factor 1 receptor (P08069 31-736 limits assumed): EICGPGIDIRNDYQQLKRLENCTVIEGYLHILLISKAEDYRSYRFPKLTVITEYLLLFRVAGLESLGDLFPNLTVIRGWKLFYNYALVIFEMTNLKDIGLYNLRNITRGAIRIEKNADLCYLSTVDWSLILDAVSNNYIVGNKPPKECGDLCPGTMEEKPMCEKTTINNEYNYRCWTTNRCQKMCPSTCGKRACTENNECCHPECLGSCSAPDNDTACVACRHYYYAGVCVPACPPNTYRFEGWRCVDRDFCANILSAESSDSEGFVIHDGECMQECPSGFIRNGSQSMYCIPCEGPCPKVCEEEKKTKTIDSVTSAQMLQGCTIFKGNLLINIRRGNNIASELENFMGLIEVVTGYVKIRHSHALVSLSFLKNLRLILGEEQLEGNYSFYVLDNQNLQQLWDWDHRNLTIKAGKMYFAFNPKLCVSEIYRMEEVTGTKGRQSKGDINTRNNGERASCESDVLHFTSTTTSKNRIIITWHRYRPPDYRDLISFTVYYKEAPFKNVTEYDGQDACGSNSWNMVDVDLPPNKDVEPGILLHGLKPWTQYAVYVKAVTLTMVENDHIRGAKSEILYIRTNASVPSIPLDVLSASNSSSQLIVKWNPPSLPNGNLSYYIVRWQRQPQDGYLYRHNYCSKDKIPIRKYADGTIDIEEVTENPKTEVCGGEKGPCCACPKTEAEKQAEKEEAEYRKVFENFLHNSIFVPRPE
Sequence of Insulin-like growth factor 1 receptor (P08069 741-1367 limits assumed): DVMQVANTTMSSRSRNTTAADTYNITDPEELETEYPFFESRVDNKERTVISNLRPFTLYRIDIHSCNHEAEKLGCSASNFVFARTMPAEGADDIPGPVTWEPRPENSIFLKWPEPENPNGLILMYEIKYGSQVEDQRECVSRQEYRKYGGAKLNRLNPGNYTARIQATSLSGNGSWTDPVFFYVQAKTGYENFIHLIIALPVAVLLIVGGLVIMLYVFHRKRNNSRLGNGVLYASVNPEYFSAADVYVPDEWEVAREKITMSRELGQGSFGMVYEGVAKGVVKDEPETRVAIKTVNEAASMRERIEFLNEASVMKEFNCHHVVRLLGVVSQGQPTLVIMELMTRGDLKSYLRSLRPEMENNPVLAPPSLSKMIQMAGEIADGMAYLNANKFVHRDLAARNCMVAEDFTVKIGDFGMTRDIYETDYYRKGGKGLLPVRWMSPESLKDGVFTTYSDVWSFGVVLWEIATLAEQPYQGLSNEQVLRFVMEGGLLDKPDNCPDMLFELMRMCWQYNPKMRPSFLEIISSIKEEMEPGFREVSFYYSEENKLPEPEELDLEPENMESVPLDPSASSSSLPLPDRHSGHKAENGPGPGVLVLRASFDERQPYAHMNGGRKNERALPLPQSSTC

[7] = target: T5, Inhibitor of nuclear factor kappa-B kinase subunit alpha (Homo sapiens, UniProt O15111); assay: Inhibition of IKK1
T5 sequence (O15111 whole entry): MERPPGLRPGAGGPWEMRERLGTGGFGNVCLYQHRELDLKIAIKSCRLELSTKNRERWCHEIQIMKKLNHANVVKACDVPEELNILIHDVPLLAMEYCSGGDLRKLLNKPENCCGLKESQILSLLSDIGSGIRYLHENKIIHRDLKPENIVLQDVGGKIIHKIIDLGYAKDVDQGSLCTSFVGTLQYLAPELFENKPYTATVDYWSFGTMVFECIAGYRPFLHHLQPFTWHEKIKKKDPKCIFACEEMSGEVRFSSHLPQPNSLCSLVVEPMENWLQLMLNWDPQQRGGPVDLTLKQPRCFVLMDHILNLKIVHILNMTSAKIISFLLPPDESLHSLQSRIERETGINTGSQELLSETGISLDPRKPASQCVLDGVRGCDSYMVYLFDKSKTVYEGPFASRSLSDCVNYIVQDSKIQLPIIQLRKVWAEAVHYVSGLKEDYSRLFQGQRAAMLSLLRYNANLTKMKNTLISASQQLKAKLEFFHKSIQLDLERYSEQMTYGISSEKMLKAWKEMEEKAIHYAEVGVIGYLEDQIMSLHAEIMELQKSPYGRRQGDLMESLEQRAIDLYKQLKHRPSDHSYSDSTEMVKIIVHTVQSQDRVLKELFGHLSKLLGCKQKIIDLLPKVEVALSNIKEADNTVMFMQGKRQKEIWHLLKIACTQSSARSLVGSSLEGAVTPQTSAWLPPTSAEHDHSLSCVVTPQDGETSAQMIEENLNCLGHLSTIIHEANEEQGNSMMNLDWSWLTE

Insulin receptor = Insulin receptor (Homo sapiens, UniProt P06213); assay: Inhibition of INS
[8] = target: T6, Tyrosine-protein kinase JAK3 (Homo sapiens, UniProt P52333); assay: Inhibition of JAK3
T6 sequence (P52333 whole entry): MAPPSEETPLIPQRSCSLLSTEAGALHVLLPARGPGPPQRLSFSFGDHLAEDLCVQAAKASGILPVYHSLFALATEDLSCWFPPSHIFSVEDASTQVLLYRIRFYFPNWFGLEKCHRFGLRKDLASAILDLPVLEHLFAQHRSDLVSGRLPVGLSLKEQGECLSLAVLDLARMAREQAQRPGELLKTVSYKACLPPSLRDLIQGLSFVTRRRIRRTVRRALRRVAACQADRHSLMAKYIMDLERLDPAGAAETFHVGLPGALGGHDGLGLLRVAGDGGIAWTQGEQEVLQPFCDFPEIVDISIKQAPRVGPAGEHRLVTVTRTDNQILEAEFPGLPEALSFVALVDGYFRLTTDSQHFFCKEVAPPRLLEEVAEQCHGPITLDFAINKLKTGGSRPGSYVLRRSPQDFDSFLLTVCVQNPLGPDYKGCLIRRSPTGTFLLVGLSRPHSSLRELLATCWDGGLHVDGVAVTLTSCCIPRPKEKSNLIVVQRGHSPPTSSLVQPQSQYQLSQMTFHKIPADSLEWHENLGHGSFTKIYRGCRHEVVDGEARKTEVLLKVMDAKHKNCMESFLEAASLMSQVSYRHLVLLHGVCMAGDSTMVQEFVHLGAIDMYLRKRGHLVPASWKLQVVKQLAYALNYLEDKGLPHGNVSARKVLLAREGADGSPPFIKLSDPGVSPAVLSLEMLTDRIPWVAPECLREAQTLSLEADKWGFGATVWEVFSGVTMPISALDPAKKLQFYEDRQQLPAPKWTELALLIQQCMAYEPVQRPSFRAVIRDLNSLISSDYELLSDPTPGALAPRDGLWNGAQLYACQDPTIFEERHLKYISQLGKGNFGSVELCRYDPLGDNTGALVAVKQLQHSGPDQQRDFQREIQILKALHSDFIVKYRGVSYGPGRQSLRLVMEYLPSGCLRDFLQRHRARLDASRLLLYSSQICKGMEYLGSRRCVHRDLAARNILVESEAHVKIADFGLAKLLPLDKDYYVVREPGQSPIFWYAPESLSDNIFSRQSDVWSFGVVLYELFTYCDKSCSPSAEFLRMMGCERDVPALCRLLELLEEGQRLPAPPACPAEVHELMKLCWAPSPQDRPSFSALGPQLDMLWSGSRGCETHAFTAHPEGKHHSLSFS

[9] = target: Mitogen-activated protein kinase 8 (Homo sapiens, UniProt P45983); assay: Inhibition of JNK1
Sequence of Mitogen-activated protein kinase 8 (P45983 whole entry): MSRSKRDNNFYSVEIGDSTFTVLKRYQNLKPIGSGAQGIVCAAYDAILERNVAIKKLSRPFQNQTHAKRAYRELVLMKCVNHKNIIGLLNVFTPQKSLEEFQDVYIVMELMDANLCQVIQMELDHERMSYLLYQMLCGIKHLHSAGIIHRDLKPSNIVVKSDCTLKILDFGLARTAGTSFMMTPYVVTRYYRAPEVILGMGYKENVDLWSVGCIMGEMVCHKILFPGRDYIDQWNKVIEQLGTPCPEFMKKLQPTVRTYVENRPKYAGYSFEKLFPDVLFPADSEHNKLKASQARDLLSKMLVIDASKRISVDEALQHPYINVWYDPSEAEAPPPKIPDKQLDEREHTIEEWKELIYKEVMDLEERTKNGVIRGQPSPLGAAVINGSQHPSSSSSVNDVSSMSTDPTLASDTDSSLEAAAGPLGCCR

[10] = target: Ribosomal protein S6 kinase beta-1 (Homo sapiens, UniProt P23443); assay: Inhibition of p70S6K
Sequence of Ribosomal protein S6 kinase beta-1 (P23443 whole entry, canonical isoform): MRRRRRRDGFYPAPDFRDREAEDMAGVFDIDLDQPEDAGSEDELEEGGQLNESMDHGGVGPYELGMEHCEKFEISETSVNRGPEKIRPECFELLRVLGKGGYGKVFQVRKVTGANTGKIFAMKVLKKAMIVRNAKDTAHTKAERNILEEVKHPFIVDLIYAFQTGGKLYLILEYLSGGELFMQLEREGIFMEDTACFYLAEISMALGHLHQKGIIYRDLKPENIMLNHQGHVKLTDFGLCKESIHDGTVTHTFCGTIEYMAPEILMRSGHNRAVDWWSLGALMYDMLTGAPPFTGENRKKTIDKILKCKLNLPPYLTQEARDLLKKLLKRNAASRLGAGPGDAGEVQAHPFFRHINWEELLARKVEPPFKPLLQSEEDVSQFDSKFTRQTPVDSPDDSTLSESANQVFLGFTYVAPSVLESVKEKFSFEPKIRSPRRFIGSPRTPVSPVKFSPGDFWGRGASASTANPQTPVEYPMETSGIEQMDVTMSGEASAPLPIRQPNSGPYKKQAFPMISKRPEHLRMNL

[11] = target: Phosphatidylinositol 4,5-bisphosphate 3-kinase catalytic subunit alpha isoform (Homo sapiens, UniProt P42336); assay: Inhibition of PI3Kalpha
[12] = target: T7, Serine/threonine-protein kinase Sgk1 (Homo sapiens, UniProt O00141); assay: Inhibition of SGK1
T7 sequence (O00141 whole entry): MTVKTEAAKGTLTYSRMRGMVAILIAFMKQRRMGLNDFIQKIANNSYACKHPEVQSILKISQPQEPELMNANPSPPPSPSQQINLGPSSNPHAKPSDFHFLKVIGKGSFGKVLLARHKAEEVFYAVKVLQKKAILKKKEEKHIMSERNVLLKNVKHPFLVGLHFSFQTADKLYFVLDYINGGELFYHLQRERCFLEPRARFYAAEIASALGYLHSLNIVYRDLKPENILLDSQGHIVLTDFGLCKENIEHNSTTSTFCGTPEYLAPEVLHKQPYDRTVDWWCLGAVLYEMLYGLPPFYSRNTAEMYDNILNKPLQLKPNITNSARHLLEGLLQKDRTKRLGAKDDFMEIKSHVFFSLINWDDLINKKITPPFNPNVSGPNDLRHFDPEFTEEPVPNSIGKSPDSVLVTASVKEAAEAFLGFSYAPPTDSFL

[13] = target: Vascular endothelial growth factor receptor 2 (Homo sapiens, UniProt P35968); assay: Inhibition of VEGFR2
Sequence of Vascular endothelial growth factor receptor 2 (P35968 whole entry): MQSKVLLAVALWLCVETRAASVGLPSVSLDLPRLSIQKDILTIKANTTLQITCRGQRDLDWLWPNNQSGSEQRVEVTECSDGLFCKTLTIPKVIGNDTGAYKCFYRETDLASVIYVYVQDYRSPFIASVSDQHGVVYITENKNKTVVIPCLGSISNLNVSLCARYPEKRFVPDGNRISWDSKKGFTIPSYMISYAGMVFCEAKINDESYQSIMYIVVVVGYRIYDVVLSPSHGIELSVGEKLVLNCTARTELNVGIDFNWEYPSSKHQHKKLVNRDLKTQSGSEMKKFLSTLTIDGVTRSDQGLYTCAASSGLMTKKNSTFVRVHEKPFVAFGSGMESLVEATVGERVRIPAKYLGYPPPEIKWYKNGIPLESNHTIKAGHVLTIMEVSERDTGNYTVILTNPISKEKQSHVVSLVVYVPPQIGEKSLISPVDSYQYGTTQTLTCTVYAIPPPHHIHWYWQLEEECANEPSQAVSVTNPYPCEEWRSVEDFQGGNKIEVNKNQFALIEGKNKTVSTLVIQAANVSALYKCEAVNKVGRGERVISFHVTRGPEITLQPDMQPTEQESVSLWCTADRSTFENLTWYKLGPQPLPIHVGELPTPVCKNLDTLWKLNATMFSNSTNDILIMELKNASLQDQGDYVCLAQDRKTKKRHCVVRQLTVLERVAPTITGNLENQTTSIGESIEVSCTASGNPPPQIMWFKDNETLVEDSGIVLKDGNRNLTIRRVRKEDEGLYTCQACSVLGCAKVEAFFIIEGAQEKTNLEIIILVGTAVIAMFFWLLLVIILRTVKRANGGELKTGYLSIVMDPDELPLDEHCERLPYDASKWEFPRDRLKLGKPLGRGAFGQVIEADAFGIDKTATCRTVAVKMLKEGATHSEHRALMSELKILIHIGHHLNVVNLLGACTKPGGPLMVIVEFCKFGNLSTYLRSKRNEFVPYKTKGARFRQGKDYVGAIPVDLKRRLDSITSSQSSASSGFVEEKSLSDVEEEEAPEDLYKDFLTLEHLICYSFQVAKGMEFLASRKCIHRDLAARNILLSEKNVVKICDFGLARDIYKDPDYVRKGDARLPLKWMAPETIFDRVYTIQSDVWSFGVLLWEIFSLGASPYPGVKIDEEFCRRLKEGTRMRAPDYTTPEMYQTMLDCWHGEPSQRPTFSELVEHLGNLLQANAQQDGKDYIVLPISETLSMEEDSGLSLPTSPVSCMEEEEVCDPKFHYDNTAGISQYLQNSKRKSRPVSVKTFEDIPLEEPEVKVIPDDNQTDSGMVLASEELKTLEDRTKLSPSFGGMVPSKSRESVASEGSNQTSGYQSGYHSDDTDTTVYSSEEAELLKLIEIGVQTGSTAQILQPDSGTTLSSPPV

[14] = target: T1, 3-phosphoinositide-dependent protein kinase 1; assay: Inhibition of human PDK1 preincubated with substrate biotinylated PDKtide for 30 mins measured after 4 hrs by Scintillation proximity assay

IC50 [1]: 326 µM
Structure (SMILES): c1cc(-c2cc[nH]n2)ccn1

IC50 [14]: 7.28 µM
Structure (SMILES): Nc1cc(-c2ccc3c(N)n[nH]c3c2)ccn1

IC50 [1]: 95.1 µM
Structure (SMILES): c1ccc(-c2nccs2)cc1 [2-PHENYLTHIAZOLE]

IC50 [1]: 376 µM
Structure (SMILES): Nc1cc2ccccc2cn1 [ISOQUINOLIN-3-AMINE]

More lines, now with the values behind:

Structure (SMILES): NC(=O)c1[nH]ncc1N
IC50 [1]: 200 µM

Structure (SMILES): NC(=O)c1cccc2cc[nH]c12
IC50 [1]: 97.5 µM

Structure (SMILES): Nc1cc(-c2ccco2)n[nH]1
IC50 [1]: 313 µM

Structure (SMILES): Nc1nccc(-c2ccc3c(N)n[nH]c3c2)n1
IC50 [2]: > 10 µM
IC50 [3]: 5.69 µM
IC50 (Aurora kinase A): 390 nM
IC50 [4]: 280 nM
IC50 [5]: > 10 µM
IC50 [6]: > 10 µM
IC50 [7]: 100 nM
IC50 (Insulin receptor): > 10 µM
IC50 [8]: 990 nM
IC50 [9]: > 10 µM
IC50 [10]: 6.34 µM
IC50 [11]: > 10 µM
IC50 [12]: > 10 µM
IC50 [13]: 840 nM
IC50 [14]: 0.37 µM

Structure (SMILES): Nc1nc(N)c2[nH]cnc2n1 [2,6-DIAMINOPURINE]
IC50 [1]: 50.8 µM
